Question: With Cc1ccc(Oc2ccc(Cl)cc2NC(=O)CCl)cc1 as the molecule, how does the melting point read?
Answer: 87 to 89 °C

Question: For O=C(O)CCCn1cncn1, which melting point is on record?
Answer: 140 to 142 °C

Question: For O=C(NCC(F)(F)F)c1ccc(O)cc1, which melting point is on record?
Answer: 113 to 115 °C

Question: Which melting point does the source give for CC(CSc1ccc(F)cc1)C(=O)O (centres undefined) here?
Answer: 61 to 63 °C

Question: Which melting point does the source give for CC(C)(C)OC(=O)N1CCOCC1C(=O)O (centres undefined) here?
Answer: 162 to 164 °C

Question: For CC1(C)C(=O)Nc2ccccc2N1C(=O)CCl, which melting point is on record?
Answer: 170 to 172 °C

Question: Which melting point does the source give for Cc1cc(CS(=O)(=O)Cl)no1 here?
Answer: 43 to 45 °C

Question: Which melting point does the source give for Brc1ccc(-c2cscn2)cc1 here?
Answer: 69 to 71 °C

Question: Which melting point does the source give for Cc1c(C=O)c(=O)n(-c2ccccc2)n1C here?
Answer: 162 to 165 °C

Question: For CC1(C)CN(C(=O)OC(C)(C)C)c2ccccc2N1, which melting point is on record?
Answer: 92 to 94 °C

Question: For CS(=O)(=O)c1ccc(F)c(S(C)(=O)=O)c1, which melting point is on record?
Answer: 196 to 198 °C

Question: For COC(=O)c1cc(S(N)(=O)=O)ccc1O, which melting point is on record?
Answer: 136 to 138 °C

Question: For OC(CNCc1ccccc1)c1ccco1 (centres undefined), which melting point is on record?
Answer: 68 to 70 °C

Question: For COC(=O)N1CCc2cc(N)ccc21, which melting point is on record?
Answer: 149 to 151 °C

Question: With CC(O)(c1ccc([N+](=O)[O-])cc1)C(F)(F)F (centres undefined) as the molecule, how does the melting point read?
Answer: 86 to 88 °C

Question: For CC(C)CNS(=O)(=O)c1ccc(C#N)cc1, which melting point is on record?
Answer: 99 to 101 °C

Question: For CS(=O)(=O)c1cc(S(N)(=O)=O)ccc1F, which melting point is on record?
Answer: 202 to 204 °C

Question: With Cc1ccc(-c2nnc(N)o2)cc1F as the molecule, how does the melting point read?
Answer: 264 to 266 °C

Question: With Cc1ccc(-c2noc(CCC(=O)O)n2)cc1 as the molecule, how does the melting point read?
Answer: 143 to 145 °C

Question: For COc1ccc2[nH]c3c(c2c1)CC1(CC3)OCCO1, which melting point is on record?
Answer: 149 to 151 °C

Question: For O=C(O)CCSCc1nc2ccccc2c(=O)[nH]1, which melting point is on record?
Answer: 193 to 195 °C

Question: For NC(=O)c1cccnc1N1CCNCC1, which melting point is on record?
Answer: 145 to 147 °C

Question: For Nc1ccc(CC2NC(=O)NC2=O)cc1 (centres undefined), which melting point is on record?
Answer: 152 to 154 °C

Question: For O=C(O)c1ccc(CN2CCCC2=O)cc1, which melting point is on record?
Answer: 151 to 153 °C

Question: Which melting point does the source give for CN(C)c1nc(C=O)c(Cl)n1-c1ccc(Br)cc1 here?
Answer: 115 to 117 °C

Question: For Cc1ccccc1C(O)CN (centres undefined), which melting point is on record?
Answer: 88 to 90 °C

Question: For Cc1cc(Cl)n2nc(C(F)(F)F)nc2n1, which melting point is on record?
Answer: 106 to 108 °C

Question: Which melting point does the source give for Cc1ccc(NS(=O)(=O)c2c[nH]c(C(=O)O)c2)c(C)c1 here?
Answer: 218 to 220 °C

Question: For Cc1ccc(C(=O)NO)cc1O, which melting point is on record?
Answer: 169 to 171 °C

Question: For O=C(O)/C=C/c1ccc(F)cc1[N+](=O)[O-], which melting point is on record?
Answer: 176 to 178 °C

Question: For Cc1ccc(-c2nnc(-c3ccc(C(=O)O)cc3)o2)cc1, which melting point is on record?
Answer: 250 to 252 °C

Question: For COC(=O)c1[nH]n(-c2ccc(C(=O)O)cc2)c(=O)c1CCO, which melting point is on record?
Answer: 233 to 235 °C

Question: For O=C(CCl)N1CCN(S(=O)(=O)c2ccc(Cl)s2)CC1, which melting point is on record?
Answer: 240 to 245 °C

Question: For OC1CCC(c2ccccc2)CC1 (centres undefined), which melting point is on record?
Answer: 117 to 119 °C

Question: For CCOc1ccc(N)c(C(N)=O)c1, which melting point is on record?
Answer: 148 to 150 °C

Question: Which melting point does the source give for CC(C)c1nn(C)c2sc(C(=O)O)cc12 here?
Answer: 209 to 211 °C

Question: With CCn1c(S)nnc1-c1ccncc1 as the molecule, how does the melting point read?
Answer: 140 to 142 °C

Question: With O=C(O)CCCN1C(=O)CNC1=O as the molecule, how does the melting point read?
Answer: 151 to 153 °C

Question: With OC1CCN(c2cncc(Cl)n2)C1 (centres undefined) as the molecule, how does the melting point read?
Answer: 80 to 82 °C

Question: Which melting point does the source give for Cc1ccnc(Br)c1[N+](=O)[O-] here?
Answer: 54 to 56 °C

Question: For Cc1c(C(N)=O)sc2nc[nH]c(=O)c12, which melting point is on record?
Answer: 283 to 285 °C

Question: Which melting point does the source give for O=C(O)c1cc(Cl)c[nH]1 here?
Answer: 182 to 184 °C

Question: With O=C(O)c1ccc(-n2cccc2)nc1 as the molecule, how does the melting point read?
Answer: 259 to 261 °C

Question: With O=C1CCc2ccc(Br)cc2N1 as the molecule, how does the melting point read?
Answer: 176 to 178 °C

Question: Which melting point does the source give for CC(C)n1c(N)nnc1S here?
Answer: 189 to 191 °C

Question: Which melting point does the source give for CN1CCCc2ccc(S(=O)(=O)Cl)cc21 here?
Answer: 64 to 66 °C

Question: Which melting point does the source give for O=C(CCCl)Nc1ccc(Br)cc1 here?
Answer: 126 to 128 °C

Question: For O=C(O)CNC(=O)c1ccc2c(c1)OCO2, which melting point is on record?
Answer: 158 to 160 °C

Question: For O=C1CCc2c(F)ccc(F)c21, which melting point is on record?
Answer: 117 to 119 °C

Question: For O=C(O)c1cc(Cl)[nH]c(=O)c1, which melting point is on record?
Answer: 249 to 251 °C

Question: Which melting point does the source give for CCCSc1ccc([N+](=O)[O-])c(N)c1 here?
Answer: 71 to 74 °C

Question: For Nc1ccc(C(=O)NCc2ccccc2)cc1, which melting point is on record?
Answer: 113 to 115 °C

Question: With O=C(c1ccc(F)cc1F)N1CCCNCC1 as the molecule, how does the melting point read?
Answer: 93 to 95 °C

Question: For Nc1ccccc1Oc1ccncc1, which melting point is on record?
Answer: 98 to 100 °C

Question: With ClCc1nc(-c2ccoc2)no1 as the molecule, how does the melting point read?
Answer: 50 to 52 °C

Question: Which melting point does the source give for Cc1cc(Br)ccc1N1CC(C(=O)O)CC1=O (centres undefined) here?
Answer: 81 to 83 °C

Question: Which melting point does the source give for CC(Cl)C(=O)Nc1ncccn1 (centres undefined) here?
Answer: 148 to 150 °C

Question: For NC(=S)C1CCCC1, which melting point is on record?
Answer: 84 to 86 °C

Question: With Cc1cc(S(N)(=O)=O)sc1C(=O)O as the molecule, how does the melting point read?
Answer: 249 to 251 °C

Question: With CNS(=O)(=O)c1cccc(CN)c1 as the molecule, how does the melting point read?
Answer: 129 to 131 °C

Question: Which melting point does the source give for Cc1cc(O)nc(C(C)(C)C)n1 here?
Answer: 177 to 179 °C

Question: For NC1=NS(=O)(=O)c2ccccc21, which melting point is on record?
Answer: 279 to 281 °C

Question: For COC(=O)c1cc(Cl)c2cc(Br)ccc2n1, which melting point is on record?
Answer: 163 to 165 °C

Question: For CC(NC(=O)c1ccc(Br)o1)C(=O)O (centres undefined), which melting point is on record?
Answer: 169 to 171 °C

Question: For CC(=O)c1cccc(S(=O)(=O)NCC(=O)O)c1, which melting point is on record?
Answer: 188 to 190 °C

Question: Which melting point does the source give for O=C(O)c1c(F)cc(OC(F)F)cc1F here?
Answer: 106 to 108 °C

Question: With O=S(=O)(Cl)Cc1ccc(Cl)nc1 as the molecule, how does the melting point read?
Answer: 59 to 61 °C

Question: Which melting point does the source give for O=c1c2ccccc2nnn1CCl here?
Answer: 129 to 133 °C

Question: For CCN1CCN(S(=O)(=O)c2ccc(Cl)c(C(=O)O)c2)CC1, which melting point is on record?
Answer: 189 to 191 °C

Question: Which melting point does the source give for CCc1cc(O)nc(CCl)n1 here?
Answer: 125 to 127 °C

Question: With CN(C)c1ccnc(Cl)n1 as the molecule, how does the melting point read?
Answer: 79 to 81 °C

Question: With N#Cc1cc(Cl)nc2ccccc12 as the molecule, how does the melting point read?
Answer: 153 to 155 °C

Question: With CS(=O)(=O)NCc1ccc(N)cc1 as the molecule, how does the melting point read?
Answer: 146 to 148 °C

Question: Which melting point does the source give for Cc1cccc(OCCCCC(=O)O)c1 here?
Answer: 55 to 57 °C

Question: With O=C(CO)NCc1ccc(F)cc1 as the molecule, how does the melting point read?
Answer: 102 to 104 °C

Question: For CC(C)(C)OC(=O)NC(C#N)c1ccc(F)cc1 (centres undefined), which melting point is on record?
Answer: 85 to 87 °C

Question: With NC(=NO)c1cnn2cccnc12 as the molecule, how does the melting point read?
Answer: 177 to 179 °C

Question: With O=C1CCc2cc(Br)c(S(=O)(=O)Cl)cc2N1 as the molecule, how does the melting point read?
Answer: 224 to 226 °C

Question: Which melting point does the source give for NCc1ccc2c(c1)CCO2 here?
Answer: 38 to 40 °C

Question: With CC(=O)c1ccc(C(F)(F)C(=O)O)n1C as the molecule, how does the melting point read?
Answer: 115 to 117 °C

Question: With Cc1ccc(O)c(N)n1 as the molecule, how does the melting point read?
Answer: 145 to 147 °C

Question: With N#Cc1nnc2ccccc2c1N as the molecule, how does the melting point read?
Answer: 319 to 321 °C

Question: Which melting point does the source give for O=C(NC1CCCCC1)c1cccnc1Cl here?
Answer: 132 to 134 °C

Question: With c1cncc(CNc2nc3ccccc3[nH]2)c1 as the molecule, how does the melting point read?
Answer: 177 to 179 °C

Question: For CCC(c1ccc(Br)cc1)N1CCNCC1 (centres undefined), which melting point is on record?
Answer: 65 to 67 °C

Question: For Nc1n[nH]c2cccc(F)c12, which melting point is on record?
Answer: 171 to 173 °C

Question: Which melting point does the source give for COc1ccc(C(CC(=O)O)NC(C)=O)cc1 (centres undefined) here?
Answer: 186 to 188 °C

Question: With CS(=O)(=O)c1ccsc1C(=O)O as the molecule, how does the melting point read?
Answer: 179 to 181 °C

Question: For ClCc1nc(-c2ccccn2)no1, which melting point is on record?
Answer: 102 to 104 °C

Question: Which melting point does the source give for Cn1cc(Br)cc1C(=O)NC1CC1 here?
Answer: 112 to 114 °C

Question: For c1ccc(-c2nnc3n2CCNC3)cc1, which melting point is on record?
Answer: 159 to 161 °C

Question: With CC(=O)c1ccc(N(C)C)cc1 as the molecule, how does the melting point read?
Answer: 105 to 107 °C

Question: For O=Cc1c[nH]nc1-c1ccc2c(c1)OCO2, which melting point is on record?
Answer: 188 to 190 °C

Question: With N#Cc1ccc(F)c(Cn2ccnc2)c1 as the molecule, how does the melting point read?
Answer: 91 to 93 °C

Question: For FC(F)(F)c1ccccc1-c1nnc(CCl)o1, which melting point is on record?
Answer: 35 to 37 °C

Question: For N#Cc1ccc(C=CC(=O)O)cc1, which melting point is on record?
Answer: 250 to 252 °C

Question: For Cn1cnc(S(=O)(=O)Cl)c1Cl, which melting point is on record?
Answer: 54 to 56 °C

Question: For O=C(Cc1ccccn1)c1ccc(Br)cc1, which melting point is on record?
Answer: 126 to 128 °C

Question: For O=C(O)c1cnn(-c2nccs2)c1, which melting point is on record?
Answer: 181 to 183 °C

Question: For O=c1[nH]cc(S(=O)(=O)Cl)c(=O)[nH]1, which melting point is on record?
Answer: 155 to 157 °C

Question: For COc1cccc2[nH]cc(CC#N)c12, which melting point is on record?
Answer: 133 to 135 °C

Question: Which melting point does the source give for CC(=O)Nc1cc(F)c(S(=O)(=O)Cl)c(F)c1 here?
Answer: 133 to 135 °C

Question: For CCOC(=O)c1c(N)sc(C(=O)OCCOC)c1C, which melting point is on record?
Answer: 118 to 120 °C

Question: Which melting point does the source give for CCOc1cc(C(=O)O)ccc1OC(F)F here?
Answer: 159 to 161 °C
